The values that follow come from patent US5965434A, “Amphipathic PH sensitive compounds and delivery systems for delivering biologically active compounds” (priority 1994, dated 1999).

Each structure is given as a SMILES string.

In general, pKa refers to the pH at which an ionisable group is half protonated. Higher therefore signals a weaker acid or stronger base.

The conditions of series [1]: background; cited from earlier work.
The nature of series [2]: pK by differential titration. As to conditions: 0.5% triton x-100. The protocol: 4-5 μmoles of compounds 1, 4, 5, 6 or 8 in a chloroform solution were dried in separate 1.5 ml microcentrifuge tubes under a vacuum overnight. The dried compounds were dissolved in […] of a 0.5% water solution of Triton X-100, pH 3.5. A 20 mM NaOH solution was added to each tube using a Dilutor 401 (Gilson Co.) and the pH was monitored using a Beckman .phi. 72 pH meter. The pKa's of the compounds were determined from differential titration curves. The transfections of the 3T3 cells were done with liposome preparations containing Dioleoylphosphatidylcholine as described above.

The test system of another series is 3T3 cells. As to the kind of experiment: Transfection of plasmid pBS.RSVLux into 3T3 cells, luciferase activity. The class given is cell-based, mouse. Conditions: Table 13.
The conditions of series [3]: background; cited from earlier work. This is another data set of the same source.
[4] abbreviates: Dioleoylphosphatidylcholine content 1:1.

Method for 3T3 cells: Liposomes were prepared by mixing chloroform solutions of the different lipids in microcentrifuge tubes with a 1.5 ml and removing the chloroform by vacuum to produce the dried lipid films. Tubes were placed under vacuum overnight to remove solvent traces. The amounts of cationic lipids in all cases were 1.34 mmol/ml with different amounts of other lipids as specified. One ml of sterile 10 mM HEPES buffer, pH 7.8, was added, and the tubes were sealed and vortexed for 1 min at room temperature and sonicated to obtain a clear emulsion.
The following cell lines were used: mouse 3T3 fibroblasts, COS cells (monkey kidney cell line transformed with the SV40 T ag), HeLa (human carcinoma cells), HepG2 (human hepatoma cell), 293 (monkey kidney cell line transformed with the adenovirus E1 gene ) were maintained in Dulbeco's Modified MEM media supplemented with 10% fetal calf serum. All cultures were maintained in a humidified atmosphere of 5% CO2 in air at 37° C. The cells were seeded in a 6-well plate (35 mm culture dishes) or a 12 well-plate (25 mm culture dishes) 24 h before the transfection at 70% confluence. Before transfection, the cells was washed once with Opti-MEM. In case of the 35 mm culture dishes, four μg of plasmid DNA (containing the luciferase or β-galactosidase reporter genes described below) in 0.75 ml of Opti-MEM was mixed with various amounts of liposomes in 0.75 ml of Opti-MEM. In case of the 25 mm culture dishes, one or two μg DNA in 400 μl of Opti-MEM was mixed with 400 μl of liposomes in 400 μl of Opti-MEM. The mixtures were incubated for 30 min at room temperature prior to being added to the cells in the culture dish. […]
The firefly luciferase and E. coli β-galactosidase reporter genes were used to determine the efficiency of DNA transfer quantitatively. […]
For determination of luciferase activity, cells were lysed by the addition of 100 ml for 25 mm plates and 200 μl for 35 mm plates of lysis buffer (0.1% Triton X-100, 0.1M K-phosphate, 1 mM DTT, pH 7.8). 20 μl of the cellular extract were analyzed for luciferase activity. […]

`CCCCCCCCCCCCCCCC[N+](C)(C)C.[Br-]` [CTAB, cetyltrimethylammonium bromide]: the Cytotoxicity result in series [1] was “significant cytotoxicity”. In the case of `CC(C)CCC[C@@H](C)[C@H]1CC[C@H]2[C@@H]3CC=C4C[C@@H](OC(=O)CCC[N+](C)(C)C)CC[C@]4(C)[C@H]3CC[C@]12C` [ChoTB, cholesteryl (4'-trimethylammonio)butanoate], the Cytotoxicity entry in series [1] is recorded as “no evidence of reduced cytotoxicity”.

Molecule `CCCCCCCCCCCCCCCC(=O)OCC(CSc1nccn1C)OC(=O)CCCCCCCCCCCCCCC` (centres unmarked) [Compound 4] gave a pKa in series [2] of less than 3.5. Regarding `CC(C)CCC[C@@H](C)[C@H]1CC[C@H]2[C@@H]3CC=C4C[C@@H](SSCCN)CC[C@]4(C)[C@H]3CC[C@]12C` [Compound 5], the “Relative Transfection Efficiency (Lipofectin = 1.0)” value (shortened to “Relative Transfection Efficiency”) in the series on 3T3 cells (Dioleoylphosphatidylcholine content 1:2) was determined as 0.84. In series [2], this molecule had a pKa of 6.8. In the case of `CC(C)CCC[C@@H](C)[C@H]1CC[C@H]2[C@@H]3CC=C4C[C@@H](OC(=O)NCCCn5ccnc5)CC[C@]4(C)[C@H]3CC[C@]12C` [Compound 6], the “Relative Transfection Efficiency” value in the series on 3T3 cells (setting [4]) was found to be 0.23. The same molecule came in with a pKa in series [2] of 6. With `CCCCCCCCCCCCCCCC(=O)OCC(CNc1ccncc1)OC(=O)CCCCCCCCCCCCCCC` (centres unmarked) [Compound 8], the “Relative Transfection Efficiency” value in the series with 3T3 cells (setting [4]) is reported as 7.68. The pKa in series [2] worked out at 5.3. Regarding `CCCCCCCC/C=C\CCCCCCCC(=O)OC[C@H](COC(=O)CCC(=O)OCC[N+](C)(C)C)OC(=O)CCCCCCC/C=C\CCCCCCCC` [DOSC, 1,2-dioleoyl-3-succinyl-sn-glycerol choline ester], the Cytotoxicity result in series [1] is “no evidence of reduced cytotoxicity”.

In the case of `CCCCCCCC/C=C\CCCCCCCC(=O)OCC(C[N+](C)(C)C)OC(=O)CCCCCCC/C=C\CCCCCCCC` (centres unmarked) [DOTAP, 1,2-Bis(oleoyloxy)-3-(4'-trimethylammonio)propane], the “Inhibition of transfection by serum” value in series [3] was “inhibits transfection to some extent”. The Cytotoxicity entry in series [1] was “no evidence of reduced cytotoxicity”. With `CCCCCCCC/C=C\CCCCCCCC(=O)OC[C@H](COC(=O)CCC[N+](C)(C)C)OC(=O)CCCCCCC/C=C\CCCCCCCC` [DOTB, 1,2-dioleoyl-3-(4'-trimethylammonio)butanoyl-sn-glycerol], the Cytotoxicity entry in series [1] was “no evidence of reduced cytotoxicity”. In the case of `CCCCCCCCCCCCCCCCCCN` [Stearylamine], in series [1], the Cytotoxicity entry is on record as “great cytotoxicity”.
